Reference: patent US20100204265A1 (priority 2009, published 2010)

Each molecule was assayed on ET (Huh-lucubineo-ET) cell line harboring I389luc-ubi-neo/NS3-3′/ET HCV replicon (assay: Replicon assay (HCV replicon, luciferase readout)). Conditions: Hepatitis C virus.
Type: cell-based
Description: A cell line, ET (Huh-lucubineo-ET) is used for screening of compounds for inhibiting HCV RNA dependent RNA polymerase. The ET cell line is stably transfected with RNA transcripts harboring a I389luc-ubi-neo/NS3-3′/ET; replicon with firefly luciferase-ubiquitin-neomycin phosphotransferase fusion protein and EMCV-IRES driven NS3-5B polyprotein containing the cell culture adaptive mutations (E1202G; T1280I; K1846T) (Krieger at al, 2001 and unpublished). The ET cells are grown in DMEM (Dulbeco's Modified Eagle's Medium), supplemented with 10% fetal calf serum, 2 mM Glutamine, Penicillin (100 IU/mL)/Streptomycin (100 μg/mL), 1× nonessential amino acids, and 250 μg/mL G418 (“Geneticin”). They are all available through Life Technologies (Bethesda, Md.). The cells are plated at 0.5−1.0×10^4 cells/well in the 96 well plates and incubated for 24 hrs before adding test compound. The compounds are added to the cells to achieve a final concentration of 0.1 nM to […] and a final DMSO (dimethylsulfoxide) concentration of 0.5%. Luciferase activity is measured 48-72 hours later by adding a lysis buffer and the substrate (Catalog number Glo-lysis buffer E2661 and Bright-Glo luciferase system E2620 Promega, Madison, Wis.). Cells should not be too confluent during the assay. Percent inhibition of replication data is plotted relative to no compound control. Under the same condition, cytotoxicity of the compounds are determined using cell proliferation reagent, WST-1 (Roche, Germany). The compounds showing antiviral activities, but no significant cytotoxicities are chosen to determine EC50 and TC50. For these determinations, a 10 point, 2-fold serial dilution for each compound was used, which spans a concentration range of 1000 fold. EC50 and similarly TC50 values were calculated by fitting % inhibition at each concentration to the following equation:
% inhibition=100%/[(EC50/[I])^b+1]
where b is Hill's coefficient.

| Compound | EC50 [µM] |
| --- | --- |
| COC(=O)C(NC(=O)c1cn2cc(-c3ccoc3)cc(C(F)(F)F)c2n1)C(C)(C)C (stereo not shown) [Compound 154, 2-[(6-Furan-3-yl-8-trifluoromethyl-imidazo[1,2-a]pyridine-2-carbonyl)-amino]-3,3-dimethyl-butyric acid methyl ester] | 27.7 |
| COC(=O)C(Cc1cnc[nH]1)NC(=O)c1cn2cc(-c3ccoc3)cc(C(F)(F)F)c2n1 (stereo not shown) [Compound 155, 2-[(6-Furan-3-yl-8-trifluoromethyl-imidazo[1,2-a]pyridine-2-carbonyl)-amino]-3-(3H-imidazol-4-yl)-propionic acid methyl ester] | 44.5 |
| COC(=O)C(CC(C)C)NC(=O)c1cn2cc(-c3ccoc3)cc(C(F)(F)F)c2n1 (stereo not shown) [Compound 156, 2-[(6-Furan-3-yl-8-trifluoromethyl-imidazo[1,2-a]pyridine-2-carbonyl)-amino]-4-methyl-pentanoic acid methyl ester] | 46.8 |
| COC(=O)C(Cc1ccccc1)NC(=O)c1cn2cc(-c3ccoc3)cc(C(F)(F)F)c2n1 (stereo not shown) [Compound 157, 2-[(6-Furan-3-yl-8-trifluoromethyl-imidazo[1,2-a]pyridine-2-carbonyl)-amino]-3-phenyl-propionic acid methyl ester] | > 50 |
| CC(C)CCOC1CCN(C(=O)c2nc3c(C(F)(F)F)cc(-c4ccoc4)cn3c2Cl)CC1 [Compound 158, (3-Chloro-6-furan-3-yl-8-trifluoromethyl-imidazo[1,2-a]pyridin-2-yl)-[4-(3-methyl-butoxy)-piperidin-1-yl]-methanone] | 8.11 |
| O=C1CCC=C1C1=CCN(C(=O)c2nc3c(C(F)(F)F)cc(-c4ccoc4)cn3c2Cl)CC1 [Compound 159, 2-[1-(3-Chloro-6-furan-3-yl-8-trifluoromethyl-imidazo[1,2-a]pyridine-2-carbonyl)-1,2,3,6-tetrahydro-pyridin-4-yl]-cyclopent-2-enone] | 0.247 |
| O=C(c1nc2c(C(F)(F)F)cc(-c3ccoc3)cn2c1Cl)N1CC[C@@H](NC(=O)C(F)(F)F)C1 [Compound 162, N-[1-(3-Chloro-6-furan-3-yl-8-trifluoromethyl-imidazo[1,2-a]pyridine-2-carbonyl)-pyrrohdin-3-yl]-2,2,2-trifluoro-acetamide] | 43.5 |
| FC(F)(F)c1cc(-c2ccoc2)cn2cc(CN3CC=C(c4nccs4)C3)nc12 [Compound 163, 6-Furan-3-yl-2-(3-thiazol-2-yl-2,5-dihydro-pyrrol-1-ylmethyl)-8-trifluoromethyl-imidazo[1,2-a]pyridine] | 42.4 |
| C=CC(=O)N[C@@H]1CCN(C(=O)c2nc3c(C(F)(F)F)cc(-c4ccoc4)cn3c2Cl)C1 [Compound 167, N-[1-(3-Chloro-6-furan-3-yl-8-trifluoromethyl-imidazo[1,2-a]pyridine-2-carbonyl)-pyrrolidin-3-yl]-acrylamide] | 1.68 |
| N#Cc1c(-c2ccoc2)cc(C(F)F)c2nc(C(=O)N3CC=C(c4nccs4)C3)c(Cl)n12 [Compound 169, 3-Chloro-8-difluoromethyl-6-furan-3-yl-2-(3-thiazol-2-yl-2,5-dihydro-pyrrole-1-carbonyl)-imidazo[1,2-a]pyridine-5-carbonitrile] | 0.28 |
| O=C(c1nc2c(C(F)(F)F)cc(-c3ccoc3)cn2c1CO)N1CC=C(c2nccs2)C1 [Compound 170, (6-Furan-3-yl-3-hydroxymethyl-8-trifluoromethyl-imidazo[1,2-a]pyridin-2-yl)-(3-thiazol-2-yl-2,5-dihydro-pyrrol-1-yl) methanone] | 0.026 |
| O=C(c1nc2c(C(F)(F)F)cc(-c3ccoc3)cn2c1CO)N1CC=C(c2ncccc2F)CC1 [Compound 171, (3-Fluoro-3′,6′-dihydro-2′H-[2,4′]bipyridinyl-1′-yl)-(6-furan-3-yl-3-hydroxymethyl-8-trifluoromethyl-imidazo[1,2-a]pyridin-2-yl)-methanone] | 1.41 |
| CC(O)c1c(C(=O)N2CC=C(c3ncccc3F)CC2)nc2c(C(F)(F)F)cc(-c3ccoc3)cn12 (stereo not shown) [Compound 172, (3-Fluoro-3′,6′-dihydro-2′H-[2,4′]bipyridinyl-1′-yl)-[6-furan-3-yl-3-(1-hydroxy-ethyl)-8-trifluoromethyl-imidazo[1,2-a]pyridin-2-yl]-methanone] | 3.11 |
| O=C(c1nc2c(C(F)(F)F)cc(-c3cn[nH]c3)cn2c1CO)N1CC=C(c2nccs2)C1 [Compound 173, [3-Hydroxymethyl-6-(1H-pyrazol-4-yl)-8-trifluoromethyl-imidazo[1,2-a]pyridin-2-yl]-(3-thiazol-2-yl-2,5-dihydro-pyrrol-1-yl)-methanone] | 0.444 |
| O=C(c1nc2c(C(F)(F)F)cc(-c3cn[nH]c3)cn2c1Cl)N1CCC(OCC2CC2)CC1 [Compound 174, [3-Chloro-6-(1H-pyrazol-4-yl)-8-trifluoromethyl-imidazo[1,2-a]pyridin-2-yl]-(4-cyclopropylmethoxy-piperidin-1-yl)-methanone] | 0.31 |
| O=C(c1nc2c(C(F)(F)F)cc(-c3ccoc3)cn2c1Cl)N1CCC(OCC2CC2)CC1 [Compound 175, (3-Chloro-6-furan-3-yl-8-trifluoromethyl-imidazo[1,2-a]pyridin-2-yl)-(4-cyclopropylmethoxy-piperidin-1-yl)-methanone] | 0.79 |
| CCCOC1CCN(C(=O)c2nc3c(C(F)(F)F)cc(-c4cn[nH]c4)cn3c2Cl)CC1 [Compound 176, [3-Chloro-6-(1H-pyrazol-4-yl)-8-trifluoromethyl-imidazo[1,2-a]pyridin-2-yl]-(4-propoxy-piperidin-1-yl)-methanone] | 0.883 |
| CCOC1CCN(C(=O)c2nc3c(C(F)(F)F)cc(-c4cn[nH]c4)cn3c2Cl)CC1 [Compound 177, [3-Chloro-6-(1H-pyrazol-4-yl)-8-trifluoromethyl-imidazo[1,2-a]pyridin-2-yl]-(4-ethoxy-piperidin-1-yl)-methanone] | 1.08 |
| COc1cccc(NC2CCN(C(=O)c3nc4c(C(F)(F)F)cc(-c5ccoc5)cn4c3Cl)C2)c1 (stereo not shown) [Compound 178, (3-Chloro-6-furan-3-yl-8-trifluoromethyl-imidazo[1,2-a]pyridin-2-yl)-[3-(3-methoxy-phenylamino)-pyrrolidin-1-yl]-methanone] | 2.41 |
| O=C(c1nc2c(C(F)(F)F)cc(-c3cn[nH]c3)cn2c1Cl)N1CCC(Nc2ccccc2)C1 (stereo not shown) [Compound 179, [3-Chloro-6-(1H-pyrazol-4-yl)-8-trifluoromethyl-imidazo[1,2-a]pyridin-2-yl]-(3-phenylamino-pyrrolidin-1-yl)-methanone] | 10.2 |
| COc1ccc(NC2CCN(C(=O)c3nc4c(C(F)(F)F)cc(-c5ccoc5)cn4c3Cl)C2)cc1 (stereo not shown) [Compound 180, (3-Chloro-6-furan-3-yl-8-trifluoromethyl-imidazo[1,2-a]pyridin-2-yl)-[3-(4-methoxy-phenylamino)-pyrrolidin-1-yl]-methanone] | 12.1 |
| CCOC1CCN(C(=O)c2nc3c(C(F)(F)F)cc(-c4cn[nH]c4)cn3c2Cl)C1 (stereo not shown) [Compound 181, [3-Chloro-6-(1H-pyrazol-4-yl)-8-trifluoromethyl-imidazo[1,2-a]pyridin-2-yl]-(3-ethoxy-pyrrolidin-1-yl)-methanone] | 13.5 |
| NC(=O)COC1CCN(C(=O)c2nc3c(C(F)(F)F)cc(-c4cn[nH]c4)cn3c2Cl)CC1 [Compound 182, 2-{1-[3-Chloro-6-(1H-pyrazol-4-yl)-8-trifluoromethyl-imidazo[1,2-a]pyridine-2-carbonyl]-piperidin-4-yloxy}-acetamide] | 54.6 |
| O=C(c1nc2c(C(F)(F)F)cc(-c3ccoc3)cn2c1Cl)N1CCC(Nc2ncccn2)C1 (stereo not shown) [Compound 183, (3-Chloro-6-furan-3-yl-8-trifluoromethyl-imidazo [1,2-a]pyridin-2-yl)-[3-(pyrimidin-2-ylamino)-pyrrolidin-1-yl]-methanone] | 55 |
| O=C(Cc1cn2cc(-c3ccoc3)cc(C(F)(F)F)c2n1)Nc1nccs1 [Compound 184, 2-(6-Furan-3-yl-8-trifluoromethyl-imidazo[1,2-a]pyridin-2-yl)-N-thiazol-2-yl-acetamide] | > 50 |
| O=C(Cc1cn2cc(-c3ccoc3)cc(C(F)(F)F)c2n1)NCc1ccccc1 [Compound 185, N-Benzyl-2-(6-furan-3-yl-8-trifluoromethyl-imidazo[1,2-a]pyridin-2-yl)-acetamide] | 4.8 |
| O=C(Cc1cn2cc(-c3ccoc3)cc(C(F)(F)F)c2n1)N1CC=C(c2nccs2)C1 [Compound 186, 2-(6-Furan-3-yl-8-trifluoromethyl-imidazo[1,2-a]pyridin-2-yl)-1-(3-thiazol-2-yl-2,5-dihydro-pyrrol-1-yl)-ethanone] | 5.98 |
| O=C(Cc1cn2cc(-c3ccoc3)cc(C(F)(F)F)c2n1)N1CCC(c2cccs2)C1 (stereo not shown) [Compound 187, 2-(6-Furan-3-yl-8-trifluoromethyl-imidazo[1,2-a]pyridin-2-yl)-1-(3-thiophen-2-yl-pyrrolidin-1-yl)-ethanone] | 2 |
